Data: US20060052314A1, “Pharmaceutical combination” (priority 2002, published 2006)
Structures can show the parent of a compound that is named as a salt.

Key:
[1] = Test G: conversion to active inhibitor in liver microsomes from humans; format: in vitro ADME
Protocol: (§1) By “prodrug of a thrombin inhibitor”, we include compounds that form a thrombin inhibitor, in an experimentally-detectable amount, and within a predetermined time (e.g. about 1 hour), following oral or parenteral administration (see, for example, Test E below) or, alternatively, following incubation in the presence of liver microsomes (see, for example, Test G below).

[2] = Test G: conversion to active inhibitor in liver microsomes from rats; format: in vitro ADME
Protocol: as §1

[3] = biological target: thrombin (Homo sapiens, UniProt P00734); experiment: Test A: IC50TT; format: biochemical

Row | melting point | IC50 [3] | Compound | conversion to the corresponding active inhibitor (free amidine) [1] | conversion to the corresponding active inhibitor (free amidine) [2]
1 | 86 to 87 °C |  | N=C(N)c1cnc(CNC(=O)[C@@H]2CCN2C(=O)[C@H](O)c2cc(Cl)cc(OC(F)F)c2)nc1 (as salt: TFA) [Example 36, Ph(3-Cl)(5-OCHF2)—(R)CH(OH)C(O)-Aze-NH—CH2-((5-amidino)-2-pyrimidinyl)] |  | 
2 |  |  | NC(=NO)c1ccc(CNC(=O)[C@@H]2CCN2C(=O)[C@H](O)c2cc(Cl)cc(OC(F)F)c2)cc1 [Example 2, Ph(3-Cl)(5-OCHF2)—(R)CH(OH)C(O)-Aze-Pab(OH)] | converted to the corresponding active inhibitor (free amidine) | converted to the corresponding active inhibitor (free amidine)
3 |  |  | CON=C(N)c1ccc(CNC(=O)[C@@H]2CCN2C(=O)[C@H](O)c2cc(Cl)cc(OC(F)(F)F)c2)cc1 [Example 7, Ph(3-Cl)(5-OCF3)—(R)CH(OH)C(O)-Aze-Pab(OMe)] | converted to the corresponding active inhibitor (free amidine) | converted to the corresponding active inhibitor (free amidine)
4 |  |  | CON=C(N)c1ccc(CNC(=O)[C@@H]2CCN2C(=O)[C@H](CO)c2cc(Cl)cc(OC(F)(F)F)c2)cc1 [Example 11, Ph(3-Cl)(5-OCF3)—(S)CH(CH2OH)C(O)-Aze-Pab(OMe)] | converted to the corresponding active inhibitor (free amidine) | converted to the corresponding active inhibitor (free amidine)
5 |  |  | CON=C(N)c1ccc(CNC(=O)[C@@H]2CCN2C(=O)[C@H](O)c2cc(Cl)cc(OC(F)F)c2)cc1 [Example 12, Ph(3-Cl)(5-OCHF2)—(R)CH(OH)C(O)-Aze-Pab(OMe)] | converted to the corresponding active inhibitor (free amidine) | converted to the corresponding active inhibitor (free amidine)
6 |  |  | CON=C(N)c1ccc(CNC(=O)[C@@H]2CCN2C(=O)[C@H](O)c2cc(Cl)cc(OCC(F)(F)F)c2)cc1 [Example 16, Ph(3-Cl)(5-OCH2CF3)—(R)CH(OH)C(O)-Aze-Pab(OMe)] | converted to the corresponding active inhibitor (free amidine) | converted to the corresponding active inhibitor (free amidine)
7 |  |  | CON=C(N)c1ccc(CNC(=O)[C@@H]2CCN2C(=O)[C@H](O)c2cc(Cl)cc(OCC(F)F)c2)cc1 [Example 18, Ph(3-Cl)(5-OCH2CHF2)—(R)CH(OH)C(O)-Aze-Pab(OMe)] | converted to the corresponding active inhibitor (free amidine) | converted to the corresponding active inhibitor (free amidine)
8 |  |  | CON=C(N)c1ccc(CNC(=O)[C@@H]2CCN2C(=O)[C@H](O)c2cc(Cl)cc(OCF)c2)cc1 [Example 20, Ph(3-Cl)(5-OCH2F)—(R)CH(OH)C(O)-Aze-Pab(OMe)] | converted to the corresponding active inhibitor (free amidine) | converted to the corresponding active inhibitor (free amidine)
9 |  |  | CON=C(N)c1ccc(CNC(=O)[C@@H]2CCN2C(=O)[C@H](O)c2cc(Cl)cc(OCCF)c2)cc1 [Example 22, Ph(3-Cl)(5-OCH2CH2F)—(R)CH(OH)C(O)-Aze-Pab(OMe)] | converted to the corresponding active inhibitor (free amidine) | converted to the corresponding active inhibitor (free amidine)
10 |  |  | CON=C(N)c1ccc(CNC(=O)[C@@H]2CCN2C(=O)[C@H](O)c2cc(Cl)cc(OC(CF)CF)c2)cc1 [Example 24, Ph(3-Cl)(5-OCH(CH2F)2)—(R)CH(OH)C(O)-Aze-Pab(OMe)] | converted to the corresponding active inhibitor (free amidine) | converted to the corresponding active inhibitor (free amidine)
11 |  |  | CON=C(N)c1ccc(CNC(=O)[C@@H]2CCN2C(=O)[C@H](O)c2cc(F)cc(OC(F)F)c2)cc1 [Example 26, Ph(3-F)(5-OCHF2)—(R)CH(OH)C(O)-Aze-Pab(OMe)] | converted to the corresponding active inhibitor (free amidine) | converted to the corresponding active inhibitor (free amidine)
12 |  |  | CON=C(N)c1ccc(CNC(=O)[C@@H]2CCCN2C(=O)[C@H](O)c2cc(Cl)cc(OC(F)F)c2)cc1 [Example 33, Ph(3-Cl)(5-OCHF2)—(R)CH(OH)—C(O)-Pro-Pab(OMe)] | converted to the corresponding active inhibitor (free amidine) | converted to the corresponding active inhibitor (free amidine)
13 |  | < 20 nM | N=C(N)c1ccc(CNC(=O)[C@@H]2CCN2C(=O)[C@H](O)c2cc(Cl)cc(OC(F)F)c2)cn1 [Example 34, Ph(3-Cl)(5-OCHF2)—(R)CH(OH)C(O)-Aze-NH—CH2-((2-amidino)-5-pyridinyl)] |  | 
14 |  | < 3500 nM | N=C(N)c1cnc(CNC(=O)[C@@H]2CCN2C(=O)[C@H](O)c2cc(Cl)cc(OC(F)F)c2)nc1 [Example 36, Ph(3-Cl)(5-OCHF2)—(R)CH(OH)C(O)-Aze-NH—CH2-((5-amidino)-2-pyrimidinyl)] |  | 
15 |  |  | CO/N=C(\N)c1cnc(CNC(=O)[C@@H]2CCN2C(=O)[C@H](O)c2cc(Cl)cc(OC(F)F)c2)nc1 [Example 37, Ph(3-Cl)(5-OCHF2)—(R)CH(OH)C(O)-Aze-NH—CH2-((5-methoxyamidino)-2-pyrimidinyl)] | converted to the corresponding active inhibitor (free amidine) | converted to the corresponding active inhibitor (free amidine)
16 |  | < 150 nM | N=C(N)c1ccc(CNC(=O)[C@@H]2CCN2C(=O)[C@H](O)c2cc(Cl)cc(OC(F)F)c2)cc1F [Example 38, Ph(3-Cl)(5-OCHF2)—(R)CH(OH)C(O)-Aze-Pab(3-F)] |  | 
17 |  | < 20 nM | N=C(N)c1cc(F)c(CNC(=O)[C@@H]2CCN2C(=O)[C@H](O)c2cc(Cl)cc(OC(F)F)c2)c(F)c1 [Example 39, Ph(3-Cl)(5-OCHF2)—(R)CH(OH)C(O)-Aze-Pab(2.6-diF)] |  | 
18 |  |  | CO/N=C(\N)c1cc(F)c(CNC(=O)[C@@H]2CCN2C(=O)[C@H](O)c2cc(Cl)cc(OC(F)F)c2)c(F)c1 [Example 40, Ph(3-Cl)(5-OCHF2)—(R)CH(OH)C(O)-Aze-Pab(2,6-diF)(OMe)] | converted to the corresponding active inhibitor (free amidine) | converted to the corresponding active inhibitor (free amidine)
19 |  | < 150 nM | N=C(N)c1cc(F)c(CNC(=O)[C@@H]2CCN2C(=O)[C@H](O)c2cc(Cl)cc(OC(F)F)c2)cc1F [Example 41, Ph(3-Cl)(5-OCHF2)—(R)CH(OH)C(O)-Aze-Pab(2,5-diF)] |  | 
20 |  |  | CCON=C(N)c1ccc(CNC(=O)[C@@H]2CCN2C(=O)[C@H](O)c2cc(Cl)cc(OC(F)F)c2)cc1 [Example 43, Ph(3-Cl)(5-OCHF2)—(R)CH(OH)C(O)-Aze-Pab(OEt)] | converted to the corresponding active inhibitor (free amidine) | converted to the corresponding active inhibitor (free amidine)
21 |  |  | CC(C)ON=C(N)c1ccc(CNC(=O)[C@@H]2CCN2C(=O)[C@H](O)c2cc(Cl)cc(OC(F)F)c2)cc1 [Example 45, Ph(3-Cl)(5-OCHF2)—(R)CH(OH)C(O)-Aze-Pab(OiPr)] | converted to the corresponding active inhibitor (free amidine) | converted to the corresponding active inhibitor (free amidine)
22 |  |  | Ph(3-Br)(5-OCHF2)—(R)CH(OH)C(O)-Aze-Pab(OMe) [Example 29] | converted to the corresponding active inhibitor (free amidine) | converted to the corresponding active inhibitor (free amidine)
23 |  |  | Ph(3-Cl)(5-OCHF2)—(R)CH(OH)C(O)-Aze-Pab(OcBu) [Example 1] | converted to the corresponding active inhibitor (free amidine) | converted to the corresponding active inhibitor (free amidine)
